Laboratory results: ChEMBL document CHEMBL1154454, “Tetrahydronaphthyl azole oxime ethers: the conformationally rigid analogues of oxiconazole as antibacterials” (2009)
Values after ≈ are worked out from the molar mass of the structure shown.

What was measured:
Klebsiella pneumoniae [1] = assay: microbe, parasite or virus in culture; assay type: functional; conditions: ATCC 27736, 24 h
Description: (§1) Antimicrobial activity against Klebsiella pneumoniae ATCC 27736 after 24 hrs by standard microbroth dilution assay

Escherichia coli [2] = assay: microbe, parasite or virus in culture; assay type: functional; conditions: ATCC 9637, 24 h
Description: (§2) Antimicrobial activity against Escherichia coli ATCC 9637 after 24 hrs by standard microbroth dilution assay

Pseudomonas aeruginosa [3] = assay: Antimicrobial activity against Pseudomonas aeruginosa ATCC BAA427 after 24 hrs by standard microbroth dilution assay; assay type: functional
Staphylococcus aureus [4] = assay: microbe, parasite or virus in culture; assay type: functional; conditions: ATCC 25923, 24 h
Description: (§3) Antimicrobial activity against Staphylococcus aureus ATCC 25923 after 24 hrs by standard microbroth dilution assay

Candida albicans = assay: Antimicrobial activity against Candida albicans after 48 hrs by standard microbroth dilution assay; assay type: functional
Cryptococcus neoformans = assay: Antimicrobial activity against Cryptococcus neoformans after 72 hrs by standard microbroth dilution assay; assay type: functional
Sporothrix schenckii = assay: Antimicrobial activity against Sporothrix schenckii after 72 hrs by standard microbroth dilution assay; assay type: functional
[5] = test system: Trichophyton mentagrophytes; assay: Antimicrobial activity against Trichophyton mentagrophytes after 96 hrs by standard microbroth dilution assay; assay type: functional
Aspergillus fumigatus = assay: Antimicrobial activity against Aspergillus fumigatus after 72 hrs by standard microbroth dilution assay; assay type: functional
Candida parapsilosis = assay: Antimicrobial activity against Candida parapsilosis after 48 hrs by standard microbroth dilution assay; assay type: functional; conditions: Lodderomyces parapsilosis
Klebsiella pneumoniae [6] = conditions: ATCC 27736
Description: as §1

Escherichia coli [7] = conditions: ATCC 9637
Description: as §2

Pseudomonas aeruginosa [8] = test system: Pseudomonas aeruginosa
Staphylococcus aureus [9] = conditions: ATCC 25923
Description: as §3

Compound	MIC (Klebsiella pneumoniae [1])	MIC (Escherichia coli [2])	MIC (Pseudomonas aeruginosa [3])	MIC (Staphylococcus aureus [4])	MIC (Candida albicans)	MIC (Cryptococcus neoformans)	MIC (Sporothrix schenckii)	MIC [5]	MIC (Aspergillus fumigatus)	MIC (Candida parapsilosis)	MIC (Klebsiella pneumoniae [6])	MIC (Escherichia coli [7])	MIC (Pseudomonas aeruginosa [8])	MIC (Staphylococcus aureus [9])
Fc1cccc2c1CCC(Cn1ccnc1)/C2=N/OCc1cccc(Cl)c1 (stereo not given)	1.56 µg/mL (≈ 4.07 µM)	0.391 µg/mL (≈ 1.02 µM)	> 50 µg/mL	0.781 µg/mL (≈ 2.03 µM)	> 50 µg/mL	> 50 µg/mL	> 50 µg/mL	> 50 µg/mL	> 50 µg/mL	> 50 µg/mL	–	–	–	–
Clc1cccc(CO/N=C2\c3cccc(Cl)c3CCC2Cn2cncn2)c1 (stereo not given)	> 50 µg/mL	6.25 µg/mL (≈ 15.6 µM)	> 50 µg/mL	> 50 µg/mL	> 50 µg/mL	> 50 µg/mL	> 50 µg/mL	> 50 µg/mL	> 50 µg/mL	> 50 µg/mL	–	–	–	–
Brc1cccc2c1CCC(Cn1ccnc1)/C2=N/OCc1ccccc1 (stereo not given)	3.12 µg/mL (≈ 7.62 µM)	0.391 µg/mL (≈ 0.953 µM)	> 50 µg/mL	1.56 µg/mL (≈ 3.81 µM)	> 50 µg/mL	> 50 µg/mL	> 50 µg/mL	> 50 µg/mL	50 µg/mL (≈ 122 µM)	> 50 µg/mL	–	–	–	–
Fc1cccc2c1CCC(Cn1ccnc1)/C2=N/OCc1ccccc1 (stereo not given)	6.25 µg/mL (≈ 17.9 µM)	0.781 µg/mL (≈ 2.24 µM)	> 50 µg/mL	3.12 µg/mL (≈ 8.94 µM)	> 50 µg/mL	> 50 µg/mL	> 50 µg/mL	> 50 µg/mL	> 50 µg/mL	> 50 µg/mL	–	–	–	–
Clc1cccc(CO/N=C2\c3ccccc3CCC2Cn2cncn2)c1 (stereo not given)	> 50 µg/mL	12.2 µg/mL (≈ 33.4 µM)	> 50 µg/mL	12.2 µg/mL (≈ 33.4 µM)	> 50 µg/mL	> 50 µg/mL	> 50 µg/mL	> 50 µg/mL	> 50 µg/mL	> 50 µg/mL	–	–	–	–
Clc1cccc2c1CCC(Cn1ccnc1)/C2=N/OCc1ccccc1 (stereo not given)	6.25 µg/mL (≈ 17.1 µM)	0.391 µg/mL (≈ 1.07 µM)	> 50 µg/mL	1.56 µg/mL (≈ 4.27 µM)	> 50 µg/mL	> 50 µg/mL	> 50 µg/mL	> 50 µg/mL	25 µg/mL (≈ 68.3 µM)	> 50 µg/mL	–	–	–	–
GENTAMICIN	–	–	–	–	–	–	–	–	–	–	0.78 µg/mL	0.18 µg/mL	25 µg/mL	6.25 µg/mL
Brc1cccc2c1CCC(Cn1cncn1)/C2=N/OCc1ccccc1 (stereo not given)	> 50 µg/mL	6.25 µg/mL (≈ 15.2 µM)	> 50 µg/mL	12.5 µg/mL (≈ 30.4 µM)	> 50 µg/mL	> 50 µg/mL	> 50 µg/mL	> 50 µg/mL	> 50 µg/mL	> 50 µg/mL	–	–	–	–
Fc1cccc2c1CCC(Cn1cncn1)/C2=N/OCc1cccc(Cl)c1 (stereo not given)	> 50 µg/mL	50 µg/mL (≈ 130 µM)	> 50 µg/mL	> 50 µg/mL	> 50 µg/mL	> 50 µg/mL	> 50 µg/mL	> 50 µg/mL	> 50 µg/mL	> 50 µg/mL	–	–	–	–
c1ccc(CO/N=C2\c3ccccc3CCC2Cn2ccnc2)cc1 (stereo not given)	6.25 µg/mL (≈ 18.9 µM)	0.781 µg/mL (≈ 2.36 µM)	> 50 µg/mL	6.25 µg/mL (≈ 18.9 µM)	> 50 µg/mL	> 50 µg/mL	> 50 µg/mL	> 50 µg/mL	50 µg/mL (≈ 151 µM)	> 50 µg/mL	–	–	–	–
OC(Cn1cncn1)(Cn1cncn1)c1ccc(F)cc1F [FLUCONAZOLE]	–	–	–	–	0.5 µg/mL (≈ 1.63 µM)	1 µg/mL (≈ 3.27 µM)	2 µg/mL (≈ 6.53 µM)	1 µg/mL (≈ 3.27 µM)	2 µg/mL (≈ 6.53 µM)	1 µg/mL (≈ 3.27 µM)	–	–	–	–
Cc1cccc2c1CCC(Cn1ccnc1)/C2=N/OCc1ccccc1 (stereo not given)	6.25 µg/mL (≈ 18.1 µM)	0.781 µg/mL (≈ 2.26 µM)	> 50 µg/mL	1.56 µg/mL (≈ 4.52 µM)	> 50 µg/mL	> 50 µg/mL	> 50 µg/mL	> 50 µg/mL	> 50 µg/mL	> 50 µg/mL	–	–	–	–
Fc1cccc2c1CCC(Cn1cncn1)/C2=N/OCc1ccccc1 (stereo not given)	> 50 µg/mL	25 µg/mL (≈ 71.3 µM)	> 50 µg/mL	> 50 µg/mL	> 50 µg/mL	> 50 µg/mL	> 50 µg/mL	> 50 µg/mL	> 50 µg/mL	> 50 µg/mL	–	–	–	–
Clc1cccc2c1CCC(Cn1ccnc1)/C2=N\OCc1ccccc1 (stereo not given)	> 50 µg/mL	> 50 µg/mL	> 50 µg/mL	3.12 µg/mL (≈ 8.54 µM)	50 µg/mL (≈ 137 µM)	> 50 µg/mL	50 µg/mL (≈ 137 µM)	12.5 µg/mL (≈ 34.2 µM)	> 50 µg/mL	> 50 µg/mL	–	–	–	–
Clc1cccc(CO/N=C2\c3cccc(Br)c3CCC2Cn2ccnc2)c1 (stereo not given)	1.56 µg/mL (≈ 3.51 µM)	0.391 µg/mL (≈ 0.879 µM)	> 50 µg/mL	0.781 µg/mL (≈ 1.76 µM)	> 50 µg/mL	> 50 µg/mL	> 50 µg/mL	> 50 µg/mL	> 50 µg/mL	50 µg/mL (≈ 112 µM)	–	–	–	–
Clc1cccc(CO/N=C2/c3ccccc3CCC2Cn2ccnc2)c1 (stereo not given)	> 50 µg/mL	> 50 µg/mL	> 50 µg/mL	6.25 µg/mL (≈ 17.1 µM)	> 50 µg/mL	> 50 µg/mL	> 50 µg/mL	25 µg/mL (≈ 68.3 µM)	> 50 µg/mL	> 50 µg/mL	–	–	–	–
Clc1ccc(CO/N=C(\Cn2ccnc2)c2ccc(Cl)cc2Cl)c(Cl)c1 [OXICONAZOLE]	> 50 µg/mL	> 50 µg/mL	> 50 µg/mL	6.25 µg/mL (≈ 14.6 µM)	12.5 µg/mL (≈ 29.1 µM)	0.01 µg/mL (≈ 0.0233 µM)	3.12 µg/mL (≈ 7.27 µM)	6.25 µg/mL (≈ 14.6 µM)	6.25 µg/mL (≈ 14.6 µM)	3.12 µg/mL (≈ 7.27 µM)	–	–	–	–
Clc1cccc(CO/N=C2\c3ccccc3CCC2Cn2ccnc2)c1 (stereo not given)	3.12 µg/mL (≈ 8.54 µM)	0.391 µg/mL (≈ 1.07 µM)	> 50 µg/mL	1.56 µg/mL (≈ 4.27 µM)	> 50 µg/mL	> 50 µg/mL	> 50 µg/mL	> 50 µg/mL	25 µg/mL (≈ 68.3 µM)	> 50 µg/mL	–	–	–	–
Cc1cccc2c1CCC(Cn1ccnc1)/C2=N/OCc1cccc(Cl)c1 (stereo not given)	1.56 µg/mL (≈ 4.11 µM)	0.391 µg/mL (≈ 1.03 µM)	> 50 µg/mL	0.781 µg/mL (≈ 2.06 µM)	> 50 µg/mL	> 50 µg/mL	> 50 µg/mL	> 50 µg/mL	50 µg/mL (≈ 132 µM)	> 50 µg/mL	–	–	–	–
Cc1cccc2c1CCC(Cn1cncn1)/C2=N/OCc1cccc(Cl)c1 (stereo not given)	> 50 µg/mL	6.25 µg/mL (≈ 16.4 µM)	> 50 µg/mL	6.25 µg/mL (≈ 16.4 µM)	> 50 µg/mL	> 50 µg/mL	> 50 µg/mL	> 50 µg/mL	> 50 µg/mL	> 50 µg/mL	–	–	–	–
c1ccc(CO/N=C2\c3ccccc3CCC2Cn2cncn2)cc1 (stereo not given)	> 50 µg/mL	25 µg/mL (≈ 75.2 µM)	> 50 µg/mL	> 50 µg/mL	> 50 µg/mL	> 50 µg/mL	> 50 µg/mL	> 50 µg/mL	> 50 µg/mL	> 50 µg/mL	–	–	–	–
Clc1cccc2c1CCC(Cn1cncn1)/C2=N/OCc1ccccc1 (stereo not given)	> 50 µg/mL	25 µg/mL (≈ 68.1 µM)	> 50 µg/mL	> 50 µg/mL	> 50 µg/mL	> 50 µg/mL	> 50 µg/mL	> 50 µg/mL	> 50 µg/mL	> 50 µg/mL	–	–	–	–
Clc1cccc(CO/N=C2/c3cccc(Br)c3CCC2Cn2ccnc2)c1 (stereo not given)	> 50 µg/mL	> 50 µg/mL	> 50 µg/mL	1.56 µg/mL (≈ 3.51 µM)	50 µg/mL (≈ 112 µM)	> 50 µg/mL	50 µg/mL (≈ 112 µM)	12.5 µg/mL (≈ 28.1 µM)	> 50 µg/mL	> 50 µg/mL	–	–	–	–
Cc1cccc2c1CCC(Cn1cncn1)/C2=N/OCc1ccccc1 (stereo not given)	> 50 µg/mL	25 µg/mL (≈ 72.2 µM)	> 50 µg/mL	> 50 µg/mL	> 50 µg/mL	> 50 µg/mL	> 50 µg/mL	> 50 µg/mL	> 50 µg/mL	> 50 µg/mL	–	–	–	–
Clc1cccc(CO/N=C2\c3cccc(Br)c3CCC2Cn2cncn2)c1 (stereo not given)	> 50 µg/mL	3.12 µg/mL (≈ 7.01 µM)	> 50 µg/mL	6.25 µg/mL (≈ 14 µM)	> 50 µg/mL	> 50 µg/mL	> 50 µg/mL	> 50 µg/mL	> 50 µg/mL	> 50 µg/mL	–	–	–	–
